Consider 14 substances from patent US5837852A, “Capped nucleic acid oligomers that inhibit cap-dependent transcription of the influenza virus endonuclease” (priority 1993, dated 1998).

In data set [1] the test system is influenza virus endonuclease (viral polymerase in viral cores). Nature of the data set: Viral endonuclease cleavage reaction of capped RNA substrates with viral cores. The class given is biochemical, Influenza A/PR/8 virus (H1N1). The conditions noted are these: for endonucleolytic cleavage by viral cores (in words): absence of nucleotide triphosphates; for dephosphorylation of the 3' phosphate by the viral polymerase (in words): 3'-phosphate terminated fragments with viral cores.

Data set [2] relates to viral polymerase (viral cores). Nature of the data set: Elongation (priming of transcription) of capped RNA fragments by viral cores with NTPs. The class given is biochemical, Influenza A/PR/8 virus (H1N1). The note with it: with NTPs (ATP, CTP, GTP).
Data set [3] has as its system viral cores. The note with it: glycerol gradients, reference 3; cited from earlier work.

Entries after “also recorded” stand apart in the source; their conditions may differ. {m7Gppp} = cap: 7-methylguanosine joined 5'-5' by triphosphate; m = 2'-O-methyl; r = 2'-OH (RNA); {P} = phosphate

Take “m^7 GpppGmAAUACUCAAG-OH (GAAUACUCAAG; sugars from the 5' end m1 r10, 5' {m7Gppp}, backbone not given here) [ID; NO; 5, capped 11-nucleotide cleavage product]”: the “endonucleolytic cleavage by viral cores (in words)” value (from here on “endonucleolytic cleavage”) in data set [1] was “did not result in further cleavage”. In data set [2] (listed as G11-OH), the “elongation / priming of transcription by viral cores (in words)” value (from here on “elongation / priming of transcription”) is given as “could function as a primer for viral transcription; also recorded: able to prime with an efficiency similar to that obtained with the full-length substrate”.
m^7 GpppGmAAUACUCA: the “elongation / priming of transcription” value in data set [2] (listed as A9-OH) is listed as “inefficiently elongated; also recorded: appeared to promote an abortive elongation product or primed transcription very inefficiently”.
Take m^7 GpppGmAAUACUCAAGGp: the “endonucleolytic cleavage” value in data set [1] was “cleavage to an 11-base primer resulted”.
With “m^7 GpppGmAAUACUCAAGp (GAAUACUCAAG; sugars from the 5' end m1 r10, 5' {m7Gppp}, 3' {P}, backbone not given here) [ID; NO]”, the entries for the “dephosphorylation of the 3' phosphate by the viral polymerase (in words)” value (“dephosphorylation of the 3' phosphate” for short) in data set [1] and in data set [1] (listed as G11-p) were “essentially no cleavage of the 3' phosphate; also recorded: little if any dephosphorylation” and “not converted to the G11-OH fragment”, respectively. The “endonucleolytic cleavage” value in data set [1] was “A minor amount of G11-P fragment was cleaved to the A9-OH fragment”. Besides, the “elongation / priming of transcription” value was “little elongation” in data set [2] and “unable to efficiently prime transcription” in data set [2] (listed as G11-p).
As to “m^7 GpppGmAAUACUCAA (GAAUACUCAA; sugars from the 5' end m1 r9, 5' {m7Gppp}, backbone not given here) [ID; NO]”, the “elongation / priming of transcription” value in data set [2] is reported as “directly primed elongation”.
For “m^7 GpppGmAAUACUCAAp (GAAUACUCAA; sugars from the 5' end m1 r9, 5' {m7Gppp}, 3' {P}, backbone not given here) [ID; NO]”, in data set [1], the “dephosphorylation of the 3' phosphate” value is recorded as “essentially no cleavage of the 3' phosphate; also recorded: little if any dephosphorylation”. The “elongation / priming of transcription” value in data set [2] is listed as “little elongation”.
For “m^7 GpppGmAAUACUCAAGCp (GAAUACUCAAGC; sugars from the 5' end m1 r11, 5' {m7Gppp}, 3' {P}, backbone not given here) [ID; NO]”, in data set [1], the “dephosphorylation of the 3' phosphate” value is on record as “little if any dephosphorylation” and the “endonucleolytic cleavage” value is “little cleavage of the C12-P fragment to the G11-OH fragment occurred”. Moreover, the “elongation / priming of transcription” value in data set [2] is “A small amount of elongation was observed”.
Regarding “m^7 GpppGmAAUACUCAAGC (GAAUACUCAAGC; sugars from the 5' end m1 r11, 5' {m7Gppp}, backbone not given here) [ID; NO]”, in data set [1], the “endonucleolytic cleavage” value was “a minor amount of secondary cleavage to a putative A9-OH fragment occurred”. Also, the “elongation / priming of transcription” value in data set [2] is given as “appeared to prime transcription without cleavage”.
Consider m^7 GpppGmUUUUUAp, for which, in data set [3], the “co-sedimentation with viral cores” value is reported as “co-sedimented efficiently”.
Take m^7 GpppGmAAUACUC: in data set [1], the “endonucleolytic cleavage” value was “neither cleaved”. The “elongation / priming of transcription” value in data set [2] is given as “nor were they able to prime transcription”.
With m^7 GpppGmAAUACU, the “endonucleolytic cleavage” value in data set [1] is listed as “neither cleaved”. The “elongation / priming of transcription” value in data set [2] is “nor were they able to prime transcription”.
Consider “m^7 GpppGmAAUACUCAAGCUp (GAAUACUCAAGCU; sugars from the 5' end m1 r12, 5' {m7Gppp}, 3' {P}, backbone not given here) [ID; NO]”, for which the “endonucleolytic cleavage” value in data set [1] is given as “cleaved in the absence of ribonucleotides to an 11 base primer”. In addition, the “elongation / priming of transcription” value in data set [2] is reported as “normal elongation is observed”.
In the case of m^7 GpppGmUp, the “co-sedimentation with viral cores” value in data set [3] is “did not”.
Consider m^7 GpppGm, for which, in data set [3], the “co-sedimentation with viral cores” value is “did not”.
